# System: CDAHFD mouse model of diet-induced NAFLD/NASH
# Experiment: TOFA and Semaglutide single agent and combination in CDAHFD mouse model of NAFLD/NASH
# Format: in vivo, C57BL/6J male mice
# Description: Six-week-old C57BL/6J male mice were fed with a L-amino acid diet with 60 kcal % fat with 0.1% methionine and no added choline (CDAHFD; Research Diets A06071302i) for eight weeks. Mice were randomly assigned to treatment groups of either a vehicle (control), 250 mg/kg of TOFA, 5 nmol/kg of Semaglutide (Novo Nordisk), or a combined dose of 250 mg/kg TOFA plus 5 nmol/kg Semaglutide. TOFA was administered by oral gavage. Semaglutide dosing was up-titrated at beginning of treatment regimen and was delivered via subcutaneous injection at the back shoulder/neck flank. All treatments were delivered QD for an additional four weeks. Mice weights and food intake were monitored during the treatment time course. Upon study termination at 12 weeks, liver and serum samples were collected. Serum liver damage biomarkers, ALT and AST, were measured by commercially available kits (abcam105134 and Cayman 701640, respectively). Hepatic and serum triglyceride levels were measured using a commercially available kit (abcam65336). Total RNA was extracted from liver tissues (Qiagen RNeasy kit 74106), and cDNA was prepared (BioRAD iScript™ Reverse Transcription) according to manufacturer's protocols. Quantitative PCR (qPCR) was performed with fast SYBR Green Mix (ThermoFisher A25742) on the QuantStudio6 System (Applied Biosciences). Additional liver samples were fixed in 4% paraformaldehyde and embedded in paraffin blocks for sectioning and subsequently stained with hematoxylin and eosin (H&E) or Sirius Red with a fast green dye background.
# [1] = four weeks, TOFA 250 mg/kg oral QD, Semaglutide 5 nmol/kg s.c. QD
structure (smiles),measurement,setting,value
"CCCCCCCCCCCCCCOc1ccc(C(=O)O)o1 [TOFA, 5-(Tetradecyloxy)-2-furoic acid]",food intake,four weeks treatment,not due to changes in food intake
same,body weight at the end of the treatment time course,[1],smaller degree of weight loss compared to Semaglutide treated mice
same,inflammation genes (RT-qPCR of liver samples),[1],specific response of TOFA in addressing inflammation
same,mRNA levels of genes involved in collagen biosynthesis (RT-qPCR),[1],strong repressive effectives
same,serum ALT levels,[1],moderate reductions
same,serum AST levels,[1],only group to have demonstrated reduction
same,fibrotic content (Sirius red staining),"four weeks, liver sections",aforementioned histological trends are noted
same,steatosis (H&E liver sections),"four weeks, relative to control",greater reduction in steatosis
same,liver triglyceride levels,"four weeks, relative to vehicle control","stronger, significant reduction"

# Reference: patent US20260034091A1, “Compositions and Methods for Treating Metabolic Disorders” (The Regents of the University of California, priority 2022, published 2026)
